We go through one cell line from the supplement of paper PMC10307832.

What all share (assay): relative viability (nuclei count vs DMSO), 5 days (fraction); higher = more cells survive
Compound in assay [1]: Cc1nc(NC(=O)N2CCC[C@H]2C(N)=O)sc1-c1ccnc(C(C)(C)C(F)(F)F)c1 [Alpelisib] + CC1(C)CCC(c2ccc(Cl)cc2)=C(CN2CCN(c3ccc(C(=O)NS(=O)(=O)c4ccc(N[C@H](CCN5CCOCC5)CSc5ccccc5)c(S(=O)(=O)C(F)(F)F)c4)cc3)CC2)C1 [Navitoclax] (partner 0.5 µM)
A digest of the protocol:
(§1)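 Lung cancer cell lines in 1536-well plates were dosed by pin tool the day after seeding, either with one drug alone or with a fixed anchor-drug dose plus five library-drug doses (not always all listed) in √10 steps. After 5 days, cells were fixed and their nuclei stained in one step (final 0.05% Triton X-100, 1% formaldehyde, 1 ug/ml Hoechst), then counted on 4× images. Relative viability is the nuclei count in treated wells divided by that in vehicle wells. Values are medians of duplicate plates.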

Compound in assay [2]: CCCS(=O)(=O)Nc1ccc(F)c(C(=O)c2c[nH]c3ncc(-c4ccc(Cl)cc4)cc23)c1F [Vemurafenib] + Cc1cc(Nc2cc(N3CCN(C)CC3)nc(Sc3ccc(NC(=O)C4CC4)cc3)n2)n[nH]1 [Tozasertib] (partner 0.1 µM)
A digest of the protocol: as §1

Compound in assay [3]: COc1cccc2cc(-c3nc([C@H]4CC[C@H](C(=O)O)CC4)n4ncnc(N)c34)[nH]c12 [OSI-027] + C[C@@H](Oc1cc(-c2cnn(C3CCNCC3)c2)cnc1N)c1c(Cl)ccc(F)c1Cl [Crizotinib] (partner 1 µM)
A digest of the protocol:
as §1

Compound in assay [4]: COc1cccc2cc(-c3nc([C@H]4CC[C@H](C(=O)O)CC4)n4ncnc(N)c34)[nH]c12 [OSI-027] + N=C(N)NC(=N)NCCc1ccccc1 [Phenformin] (partner 250 µM)
A digest of the protocol:
as §1

For the cell line UMC-11, the relative viability came out at 0.319 in assay [1] (first compound 0.04 µM); 0.341 in assay [1] (first compound 0.1265 µM); 0.336 in assay [1] (first compound 0.4 µM); 0.325 in assay [1] (first compound 1.265 µM); 0.273 in assay [1] (first compound 4 µM); 0.217 in assay [2] (first compound 0.03162 µM). Further, the relative viability in assay [2] (first compound 0.1 µM) amounted to 0.216; in assay [2] (first compound 0.3162 µM), 0.199; in assay [2] (first compound 1 µM), 0.212; in assay [3] (first compound 0.01 µM), 0.499; in assay [3] (first compound 0.03162 µM), 0.535; in assay [3] (first compound 0.1 µM) it was 0.587. For the same cell line, the relative viability is 0.491 in assay [3] (first compound 0.3162 µM); 0.378 in assay [3] (first compound 1 µM); 0.337 in assay [4] (first compound 0.01 µM); 0.366 in assay [4] (first compound 0.03162 µM); 0.311 in assay [4] (first compound 0.1 µM); 0.311 in assay [4] (first compound 0.3162 µM). Moreover, in assay [4] (first compound 1 µM), the relative viability came out at 0.274.
